Measured values taken from ChEMBL document CHEMBL1201862, “PubChem BioAssay data set” (2004).
Calls of active or inactive are those of the source.

Tests used:
[1] = A High Throughput Confirmatory Assay used to Identify Novel Compounds that Inhibit Mycobacterium Tuberculosis in the absence of Glycerol.; format: functional
[2] = molecular target: T1, Rac GTPase-activating protein 1 (Homo sapiens, UniProt Q9H0H5); assay: MgcRacGAP GTPase-activating activity inhibitors, confirmation, biochemical, ADP Hunter fluorescence, primary and confirmatory (AID 624330); format: functional
T1 sequence (Q9H0H5 whole entry): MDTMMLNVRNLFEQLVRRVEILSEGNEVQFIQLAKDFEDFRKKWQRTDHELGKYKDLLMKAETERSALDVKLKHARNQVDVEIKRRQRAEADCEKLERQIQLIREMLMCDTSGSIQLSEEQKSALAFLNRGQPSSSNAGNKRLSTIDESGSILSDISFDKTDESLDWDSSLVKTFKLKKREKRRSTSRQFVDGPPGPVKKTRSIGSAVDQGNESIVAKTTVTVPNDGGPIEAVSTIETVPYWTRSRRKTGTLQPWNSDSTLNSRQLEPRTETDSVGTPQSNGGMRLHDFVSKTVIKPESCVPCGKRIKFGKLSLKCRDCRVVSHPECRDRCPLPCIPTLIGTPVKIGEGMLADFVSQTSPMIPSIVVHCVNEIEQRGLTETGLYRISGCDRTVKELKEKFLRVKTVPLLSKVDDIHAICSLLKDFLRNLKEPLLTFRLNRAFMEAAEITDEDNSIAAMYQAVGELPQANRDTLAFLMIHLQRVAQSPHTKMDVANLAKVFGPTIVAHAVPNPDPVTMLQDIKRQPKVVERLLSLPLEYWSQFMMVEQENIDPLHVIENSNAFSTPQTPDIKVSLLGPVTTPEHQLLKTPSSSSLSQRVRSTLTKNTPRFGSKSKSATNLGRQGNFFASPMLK

Mucolipin-3 = Mucolipin-3 (Homo sapiens, UniProt Q8TDD5); assay: Dose response cell-based high-throughput screening assay for agonists of the transient receptor potential channel ML3 (TRPML3). [Related pubchem assays: 1526, 1424, 1448 ]; format: functional
Ion channel NompC = Ion channel NompC (Danio rerio, UniProt Q7T1G6); assay: Fluorescence counterscreen assay for TRPML3 agonists: dose response cell-based high-throughput screening assay to identify agonists of the transient receptor potential channel N1 (TRPN1). [Related pubchem assays: 1526, 1424, 1448 ]; format: functional
[3] = molecular target: T2, Heat shock factor protein 1 (Mus musculus, UniProt P38532); assay: HSF1 potentiators in luciferase reporter cells, confirmation, cell-based, NIH3T3, luminescence, dose retest (AID 435004); format: functional;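 note: stress induced by proteasome inhibitor MG132 added 30 min after compound; luciferase reporter driven by HSF1 response element in NIH3T3 cells; actives raise luminescence as potentiators of the MG132 stress response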
T2 sequence (P38532 whole entry): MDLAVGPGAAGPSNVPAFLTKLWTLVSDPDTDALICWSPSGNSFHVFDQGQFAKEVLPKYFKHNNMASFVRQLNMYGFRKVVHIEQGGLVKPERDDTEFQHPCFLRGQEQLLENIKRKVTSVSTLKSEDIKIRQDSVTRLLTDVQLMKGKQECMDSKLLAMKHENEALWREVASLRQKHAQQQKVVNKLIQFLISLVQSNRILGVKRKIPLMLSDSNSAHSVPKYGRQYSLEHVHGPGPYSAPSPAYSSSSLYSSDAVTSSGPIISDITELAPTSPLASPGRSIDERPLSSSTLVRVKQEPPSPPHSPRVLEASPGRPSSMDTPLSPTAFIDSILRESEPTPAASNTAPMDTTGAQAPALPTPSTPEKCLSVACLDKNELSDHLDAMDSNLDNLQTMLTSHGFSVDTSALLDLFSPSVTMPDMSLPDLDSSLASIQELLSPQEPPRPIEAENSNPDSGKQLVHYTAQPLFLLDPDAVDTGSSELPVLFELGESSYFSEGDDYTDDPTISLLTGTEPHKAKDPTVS

[4] = molecular target: T3, Neuropeptide Y receptor type 2 (Homo sapiens, UniProt P49146); assay: NPY-Y2 antagonist potency, selectivity check, dose response, counter-screen for NPY-Y1 antagonist project, cell-based (AID 1278); format: functional
T3 sequence (P49146 whole entry): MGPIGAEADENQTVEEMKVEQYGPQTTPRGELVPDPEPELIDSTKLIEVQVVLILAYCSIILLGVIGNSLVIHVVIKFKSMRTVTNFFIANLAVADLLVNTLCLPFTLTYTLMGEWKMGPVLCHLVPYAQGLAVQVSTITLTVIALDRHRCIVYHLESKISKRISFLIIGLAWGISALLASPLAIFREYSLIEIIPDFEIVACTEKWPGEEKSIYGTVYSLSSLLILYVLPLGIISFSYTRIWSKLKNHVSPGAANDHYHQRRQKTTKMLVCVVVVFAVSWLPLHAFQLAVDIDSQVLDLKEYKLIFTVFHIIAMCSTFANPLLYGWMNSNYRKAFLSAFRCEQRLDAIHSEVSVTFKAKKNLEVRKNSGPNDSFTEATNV

[5] = molecular target: T4, Neuropeptide Y receptor type 1 (Homo sapiens, UniProt P25929); assay: NPY-Y1 receptor antagonist potency, dose response, cell-based (AID 1277); format: functional
T4 sequence (P25929 whole entry): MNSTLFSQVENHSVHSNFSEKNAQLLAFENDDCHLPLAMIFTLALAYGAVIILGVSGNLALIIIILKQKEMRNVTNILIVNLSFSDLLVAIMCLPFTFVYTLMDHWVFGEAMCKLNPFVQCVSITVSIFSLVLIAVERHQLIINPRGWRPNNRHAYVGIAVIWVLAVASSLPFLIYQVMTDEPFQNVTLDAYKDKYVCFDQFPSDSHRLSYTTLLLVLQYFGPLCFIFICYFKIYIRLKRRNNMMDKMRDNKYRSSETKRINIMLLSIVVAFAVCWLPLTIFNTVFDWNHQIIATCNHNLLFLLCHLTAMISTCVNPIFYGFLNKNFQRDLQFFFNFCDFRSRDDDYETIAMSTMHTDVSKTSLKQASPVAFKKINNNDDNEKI

[6] = inhibitors of intracellular T. cruzi replication, confirmation, NIH3T3 host cells, beta-gal luminescence (AID 2044); format: functional, cell-based;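 note: intracellular parasites grown in NIH/3T3 mouse fibroblasts as host cells; luminescent beta-galactosidase reporter signal from transgenic T. cruzi replicating inside host cells; inhibitors lower the luminescence signal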
[7] = molecular target: T5, Calpain-2 catalytic subunit (Sus scrofa, UniProt P43367); assay: pig calpain II inhibitor potency, dose response, biochemical, fluorogenic peptide substrate (AID 1420); format: functional
T5 sequence (P43367 whole entry): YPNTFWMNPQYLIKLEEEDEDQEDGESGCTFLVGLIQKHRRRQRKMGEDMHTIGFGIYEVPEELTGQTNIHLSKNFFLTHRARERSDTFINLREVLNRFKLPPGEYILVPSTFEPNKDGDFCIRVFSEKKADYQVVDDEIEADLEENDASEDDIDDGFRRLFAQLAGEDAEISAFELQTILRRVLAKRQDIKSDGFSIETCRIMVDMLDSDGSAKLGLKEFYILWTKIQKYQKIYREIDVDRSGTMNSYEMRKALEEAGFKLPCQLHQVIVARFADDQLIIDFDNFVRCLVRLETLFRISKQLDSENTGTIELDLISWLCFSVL

[8] = cytotoxicity toward NIH3T3 fibroblasts, dose response, counter-screen, cell-based, ATP luminescence, mouse fibroblasts (AID 2010); format: functional;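 note: cells exposed to compound for about 90 hours before reading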
[9] = molecular target: Luciferin 4-monooxygenase (Photinus pyralis, UniProt P08659); assay: firefly luciferase enzyme inhibitors, dose response, biochemical, luminescence (AID 1891)
[10] = Luminescence Cell-Based Dose Confirmation HTS to Identify Inhibitors of Platelet Dense Granule Release. [Related pubchem assays: 1663 (Primary HTS), 1678 (Summary of Project)]; format: functional
[11] = molecular target: Potassium voltage-gated channel subfamily KQT member 2 (Rattus norvegicus, UniProt O88943, W236L); assay: KCNQ2 channel potentiators, dose response, mechanism study for KCNQ2 potentiator project, cell-based, automated electrophysiology (AID 2603); format: functional
[12] = molecular target: Epstein-Barr nuclear antigen 1 (Epstein-Barr virus (strain B95-8) (HHV-4) (Human herpesvirus 4), UniProt P03211); assay: EBNA-1 inhibitors, dose response, biochemical, fluorescence polarization, 1536-well (AID 2381); design: species or system human gammaherpesvirus 4;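 note: fluorescence polarization of a Cy5 DNA probe bound by EBNA-1 protein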
[13] = molecular target: Lytic switch protein BZLF1 (Epstein-Barr virus (strain B95-8) (HHV-4) (Human herpesvirus 4), UniProt P03206); assay: EBV ZTA inhibitors, dose response, counter-screen for EBNA-1 inhibitor project, biochemical, fluorescence polarization, Epstein-Barr virus, 1536-well (AID 2377); design: species or system human gammaherpesvirus 4;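 note: fluorescence polarization of Cy5-labelled ZRE DNA probe bound by purified Zta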
[14] = inhibitors of Bluetongue virus cytopathic effect, confirmation, arbovirus, BSR cells (AID 1250); format: functional;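 note: protection from viral cytopathic effect measured as cell viability by ATP luminescence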
HEK293 [15] = assay: NOD1 signaling inhibitors, primary screen, cell-based, luminescence, uHTS (AID 1578); format: functional; settings: Homo sapiens
HEK293 [16] = assay: cells; format: functional, cell-based; settings: Homo sapiens
HEK293 [17] = assay: cells; format: functional, cell-based; settings: Homo sapiens; remark: listed apart in the source
[18] = Luminescence-based counterscreen assay for KLF5 inhibitors: dose response cell-based high throughput screening assay to identify cytotoxic compounds using the IEC-6 intestinal epithelial cell line. [Related pubchem assays: 1700 (Primary screen.), 1834 (Confirmation screen.), 1858 (Summary AID.), 1905 (Counterscreen.)]; format: functional
[19] = molecular target: Nucleotide-binding oligomerization domain-containing protein 2 (Homo sapiens, UniProt Q9HC29); assay: NOD2 signaling inhibitors, cell-based, luminescence, uHTS, HEK293 (AID 1566); format: functional
HEK293 [20] = assay: NOD2 signaling inhibitors in MDP-stimulated cells, cell-based, uHTS, luminescence (AID 2001); format: functional; settings: Homo sapiens
HEK293 [21] = assay: cells; format: functional, cell-based; settings: Homo sapiens; remark: listed apart in the source
Exodeoxyribonuclease V = Exodeoxyribonuclease V (Escherichia coli (strain K12), UniProt P04993+P07648+P08394); assay: E. coli RecBCD inhibitors, dose response, counter-screen for AddAB inhibitor project, absorbance, V66 E. coli, mutant T4 phage (AID 492957); format: functional, cell-based, Escherichia coli str. K-12 substr. MG1655
Nonstructural protein 1 = Nonstructural protein 1 (Influenza A virus, UniProt Q194T2); format: functional, Influenza A virus (A/California/07/2009(H1N1))
[22] = Counterscreen for AddAB inhibitors: absorbance-based bacterial cell-based high throughput dose response assay for inhibitors of bacterial viability. [Related pubchem assays (depositor defined):AID435030, AID449728, AID449731, AID488942, AID488955, AID488956]; format: functional
INS1 = assay: beta cell apoptosis inhibitors, cytokine rescue, dose response, luminescence, retest (AID 449756); format: functional, cell-based; settings: Rattus norvegicus;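 note: cell death triggered by IL-1 beta plus TNF-alpha plus IFN-gamma mixture; protective hits raise ATP signal compared with cytokine alone wells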
[23] = HepG2 cell cytotoxicity, dose response, cytotoxicity control, ATP luminescence, cherry-pick, activator set 2 (AID 1053143); format: functional, cell-based

Sequence of Nucleotide-binding oligomerization domain-containing protein 2 (Q9HC29 whole entry, the tested form may be a part): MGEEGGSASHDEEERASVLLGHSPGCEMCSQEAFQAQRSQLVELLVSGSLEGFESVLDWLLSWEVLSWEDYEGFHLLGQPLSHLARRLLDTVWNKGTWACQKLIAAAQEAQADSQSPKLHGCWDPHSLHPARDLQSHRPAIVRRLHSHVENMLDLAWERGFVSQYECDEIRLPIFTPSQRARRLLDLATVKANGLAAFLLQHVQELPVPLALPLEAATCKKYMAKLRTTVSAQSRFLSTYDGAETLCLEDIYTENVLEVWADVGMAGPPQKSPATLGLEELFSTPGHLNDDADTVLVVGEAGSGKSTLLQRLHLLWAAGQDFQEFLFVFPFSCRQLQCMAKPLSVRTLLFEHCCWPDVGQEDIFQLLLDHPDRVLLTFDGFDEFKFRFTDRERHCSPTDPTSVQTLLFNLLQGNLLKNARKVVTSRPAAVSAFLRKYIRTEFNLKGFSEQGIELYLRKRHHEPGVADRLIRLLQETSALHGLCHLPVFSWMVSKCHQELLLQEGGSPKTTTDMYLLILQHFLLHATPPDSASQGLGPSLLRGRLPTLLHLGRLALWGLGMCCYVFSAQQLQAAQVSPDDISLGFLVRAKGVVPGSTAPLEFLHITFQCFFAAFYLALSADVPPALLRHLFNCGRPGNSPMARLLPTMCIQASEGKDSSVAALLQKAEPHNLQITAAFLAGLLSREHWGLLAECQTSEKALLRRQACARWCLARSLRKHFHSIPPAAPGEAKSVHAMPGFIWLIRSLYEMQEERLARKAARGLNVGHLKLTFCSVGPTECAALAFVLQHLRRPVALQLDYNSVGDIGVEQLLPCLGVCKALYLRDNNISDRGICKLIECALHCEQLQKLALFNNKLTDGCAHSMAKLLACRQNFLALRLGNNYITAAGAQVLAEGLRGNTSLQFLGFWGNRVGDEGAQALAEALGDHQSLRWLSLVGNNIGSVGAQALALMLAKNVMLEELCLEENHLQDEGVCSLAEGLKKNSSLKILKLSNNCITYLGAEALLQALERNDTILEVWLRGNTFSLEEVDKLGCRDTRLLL
Sequence of Mucolipin-3 (Q8TDD5 whole entry): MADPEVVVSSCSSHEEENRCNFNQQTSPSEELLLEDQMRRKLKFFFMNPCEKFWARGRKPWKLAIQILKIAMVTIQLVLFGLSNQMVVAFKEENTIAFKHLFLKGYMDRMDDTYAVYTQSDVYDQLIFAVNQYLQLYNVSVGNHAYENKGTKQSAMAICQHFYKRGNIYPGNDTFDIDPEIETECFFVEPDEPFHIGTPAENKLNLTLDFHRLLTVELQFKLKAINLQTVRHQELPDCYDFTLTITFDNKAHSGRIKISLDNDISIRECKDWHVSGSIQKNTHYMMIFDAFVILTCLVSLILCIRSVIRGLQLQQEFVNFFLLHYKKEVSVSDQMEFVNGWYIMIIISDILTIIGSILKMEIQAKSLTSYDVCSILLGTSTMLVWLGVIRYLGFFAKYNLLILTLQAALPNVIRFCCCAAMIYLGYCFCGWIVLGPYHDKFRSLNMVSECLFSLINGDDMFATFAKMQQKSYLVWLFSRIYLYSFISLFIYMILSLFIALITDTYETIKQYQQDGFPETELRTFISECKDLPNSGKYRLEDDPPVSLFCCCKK
Sequence of Ion channel NompC (Q7T1G6 whole entry): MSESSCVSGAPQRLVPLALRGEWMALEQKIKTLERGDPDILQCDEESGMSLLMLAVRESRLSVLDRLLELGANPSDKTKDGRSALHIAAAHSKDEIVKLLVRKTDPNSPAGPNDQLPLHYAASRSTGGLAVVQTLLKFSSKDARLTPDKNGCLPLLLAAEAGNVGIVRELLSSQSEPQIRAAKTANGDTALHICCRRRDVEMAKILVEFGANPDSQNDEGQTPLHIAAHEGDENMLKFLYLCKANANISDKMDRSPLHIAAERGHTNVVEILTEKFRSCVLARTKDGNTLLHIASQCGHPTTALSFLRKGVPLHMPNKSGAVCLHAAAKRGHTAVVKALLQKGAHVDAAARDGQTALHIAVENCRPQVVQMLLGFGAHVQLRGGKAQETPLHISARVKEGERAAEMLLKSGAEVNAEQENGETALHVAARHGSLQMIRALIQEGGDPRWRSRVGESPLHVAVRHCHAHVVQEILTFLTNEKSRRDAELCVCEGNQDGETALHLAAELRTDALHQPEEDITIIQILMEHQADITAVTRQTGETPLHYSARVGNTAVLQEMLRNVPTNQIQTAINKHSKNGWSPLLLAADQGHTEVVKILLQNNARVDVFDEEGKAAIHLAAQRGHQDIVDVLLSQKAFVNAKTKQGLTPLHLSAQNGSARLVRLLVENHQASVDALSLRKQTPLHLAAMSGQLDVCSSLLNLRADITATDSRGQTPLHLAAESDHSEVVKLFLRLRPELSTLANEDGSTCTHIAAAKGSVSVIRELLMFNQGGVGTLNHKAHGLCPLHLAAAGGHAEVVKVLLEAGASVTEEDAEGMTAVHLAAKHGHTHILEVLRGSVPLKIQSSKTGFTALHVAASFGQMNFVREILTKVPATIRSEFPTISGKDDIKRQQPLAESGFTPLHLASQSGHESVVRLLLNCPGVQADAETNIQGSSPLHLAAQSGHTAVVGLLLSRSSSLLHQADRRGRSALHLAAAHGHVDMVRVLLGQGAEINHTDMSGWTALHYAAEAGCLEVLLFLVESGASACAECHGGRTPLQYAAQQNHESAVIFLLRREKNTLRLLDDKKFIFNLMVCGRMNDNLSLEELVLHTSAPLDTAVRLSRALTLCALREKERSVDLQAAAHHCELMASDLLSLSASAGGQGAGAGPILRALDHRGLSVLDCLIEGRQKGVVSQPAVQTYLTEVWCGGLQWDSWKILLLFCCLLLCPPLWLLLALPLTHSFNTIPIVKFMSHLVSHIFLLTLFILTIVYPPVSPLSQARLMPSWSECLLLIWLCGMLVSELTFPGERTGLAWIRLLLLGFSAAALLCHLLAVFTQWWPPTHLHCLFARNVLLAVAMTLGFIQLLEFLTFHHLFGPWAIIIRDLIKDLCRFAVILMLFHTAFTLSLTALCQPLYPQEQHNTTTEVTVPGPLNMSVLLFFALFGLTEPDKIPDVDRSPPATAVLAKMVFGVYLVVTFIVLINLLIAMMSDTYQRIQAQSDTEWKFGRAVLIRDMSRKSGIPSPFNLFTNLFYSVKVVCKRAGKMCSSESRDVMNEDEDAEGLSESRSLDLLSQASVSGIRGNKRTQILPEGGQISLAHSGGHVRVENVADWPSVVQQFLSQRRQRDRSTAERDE
Sequence of Luciferin 4-monooxygenase (P08659 whole entry): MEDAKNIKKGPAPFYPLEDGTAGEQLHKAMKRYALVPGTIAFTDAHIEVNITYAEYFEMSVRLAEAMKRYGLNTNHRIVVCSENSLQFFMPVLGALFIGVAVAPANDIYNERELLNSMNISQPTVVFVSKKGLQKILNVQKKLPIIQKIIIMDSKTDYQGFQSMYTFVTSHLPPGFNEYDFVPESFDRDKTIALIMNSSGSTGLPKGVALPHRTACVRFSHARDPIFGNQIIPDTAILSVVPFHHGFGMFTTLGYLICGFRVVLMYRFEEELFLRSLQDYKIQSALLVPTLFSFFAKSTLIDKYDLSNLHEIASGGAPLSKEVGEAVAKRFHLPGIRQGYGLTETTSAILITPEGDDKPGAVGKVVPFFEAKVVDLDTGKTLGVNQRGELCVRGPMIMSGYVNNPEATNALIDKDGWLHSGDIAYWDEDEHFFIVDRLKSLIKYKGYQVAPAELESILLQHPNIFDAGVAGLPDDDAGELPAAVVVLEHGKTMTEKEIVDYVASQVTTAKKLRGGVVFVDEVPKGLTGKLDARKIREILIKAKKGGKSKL
Sequence of Potassium voltage-gated channel subfamily KQT member 2 (O88943 whole entry W236L): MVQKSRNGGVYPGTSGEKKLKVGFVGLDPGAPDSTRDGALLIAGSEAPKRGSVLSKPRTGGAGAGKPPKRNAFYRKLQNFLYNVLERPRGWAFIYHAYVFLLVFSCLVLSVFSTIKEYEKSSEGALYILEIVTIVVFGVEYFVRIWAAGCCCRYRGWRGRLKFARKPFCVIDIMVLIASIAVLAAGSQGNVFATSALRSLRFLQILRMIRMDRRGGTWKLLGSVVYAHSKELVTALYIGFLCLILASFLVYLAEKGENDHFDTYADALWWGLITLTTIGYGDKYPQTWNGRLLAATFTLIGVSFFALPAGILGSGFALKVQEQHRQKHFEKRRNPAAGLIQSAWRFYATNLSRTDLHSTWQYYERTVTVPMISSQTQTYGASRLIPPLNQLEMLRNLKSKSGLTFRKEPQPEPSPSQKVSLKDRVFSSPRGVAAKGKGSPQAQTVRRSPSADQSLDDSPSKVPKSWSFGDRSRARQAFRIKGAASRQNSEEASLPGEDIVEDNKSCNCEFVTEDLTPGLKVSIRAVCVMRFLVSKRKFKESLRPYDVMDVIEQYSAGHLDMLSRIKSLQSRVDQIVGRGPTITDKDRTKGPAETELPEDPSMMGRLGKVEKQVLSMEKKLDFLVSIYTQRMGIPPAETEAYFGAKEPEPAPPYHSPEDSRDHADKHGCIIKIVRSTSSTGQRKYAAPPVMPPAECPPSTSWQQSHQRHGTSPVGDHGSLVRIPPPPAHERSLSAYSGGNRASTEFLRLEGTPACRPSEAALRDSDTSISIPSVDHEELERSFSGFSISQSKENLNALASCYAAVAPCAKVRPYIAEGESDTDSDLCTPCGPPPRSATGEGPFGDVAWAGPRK
Sequence of Lytic switch protein BZLF1 (P03206 whole entry): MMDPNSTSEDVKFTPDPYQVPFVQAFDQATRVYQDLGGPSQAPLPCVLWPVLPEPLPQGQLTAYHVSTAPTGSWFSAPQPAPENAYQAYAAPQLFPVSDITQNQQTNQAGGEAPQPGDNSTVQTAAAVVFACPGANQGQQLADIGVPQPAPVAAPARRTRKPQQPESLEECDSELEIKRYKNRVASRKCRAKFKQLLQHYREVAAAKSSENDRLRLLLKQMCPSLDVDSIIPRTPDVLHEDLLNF

O=C(NC1CCN(C(=O)N2c3ccccc3Sc3ccccc32)CC1)c1ccccc1F
IC50 [1]: > 100 µM (active) | IC50 [2]: 115 µM (active)

O=C(Nc1c(S(=O)(=O)c2ccc(Cl)cc2)csc1Br)c1ccccc1Cl
EC50 (Mucolipin-3): > 3.32 µM (active) | EC50 (Ion channel NompC): > 29.9 µM (not active) | EC50 [3]: > 260 µM (inactive)

COc1ccc(N(C)S(=O)(=O)c2cccc(C(=O)NCC3CCCCC3)c2)cc1
IC50 [4]: > 35 µM (not active) | IC50 [5]: > 35 µM (not active) | EC50 [6]: > 30 µM (not active) | IC50 [7]: 14.1 µM (not active) | EC50 [8]: > 30 µM (not active)

Cc1cc(Cl)c(S(=O)(=O)N2CCN(c3ccccn3)CC2)cc1OCC(=O)NC1CCCCC1
EC50 [9]: 77.1 µM (active) | EC50 [10]: > 112 µM (not active) | EC50 [11]: 5.34 µM (active)

CCOc1ccc(NC(=O)CCC(=O)NNC(=O)COc2ccc(C)cc2Br)cc1
IC50 [12]: 5.52 µM (active) | IC50 [13]: > 111 µM (not active)

COc1cccc(-c2nc(SCC(=O)Nc3nc(-c4ccccc4)c(C)s3)nc(O)c2C#N)c1
IC50 [14]: 23.4 µM (active)

Oc1cccc(/C=N/Nc2ccc(Cl)nn2)c1O
EC50 (HEK293 [15]): > 20 µM (inactive) | IC50 (HEK293 [16]): 17.5 µM (active) | IC50 (HEK293 [17]): > 20 µM (inactive) | IC50 [18]: 7.91 µM (active) | EC50 [19]: > 20 µM (inactive) | IC50 (HEK293 [20]): > 20 µM (inactive) | IC50 (HEK293 [21]): > 20 µM (inactive) | IC50 (Exodeoxyribonuclease V): > 119 µM (inactive) | IC50 (Nonstructural protein 1): 2.23 µM (active) | IC50 [22]: > 119 µM (inactive) | AC50 (INS1): 1.76 µM (active) | AC50 [23]: 20.4 µM (active)
